Key:
mda-7 mRNA [1] = test: RT-PCR followed by Southern blotting of mda-7 mRNA; type: cell-based, human; conditions: HO-1 cells, compared to IFN-β+MEZ treated samples
Procedure: (FIG. 2B) Mda-7 message expression detected by Northern blotting and RT-PCR followed by Southern blotting. Total RNA from control (FIG. 2C) HO-1 cells and cells treated with IFN-β (I), MEZ (M) or IFN-β+MEZ (I+M) were analyzed by Northern blotting or RT-PCR/Southern using radiolabeled mda-7 cDNA as a probe as previously described (Jiang et al., 1993, 1995a; Kang et al., 1998a). GAPDH was used as an internal loading control.
To determine the possible presence of trace amounts of mda-7 mRNA in response to differentiation inducer treatment (IFN-β) and in the absence of treatment, a more sensitive method of message detection was employed, i.e., RT-PCR followed by Southern blotting.
Nucleic acid analysed. Total cytoplasmic RNA was prepared by the guanidinium-HCL extraction method followed by Northern blotting or RT-PCR analysis using previously published protocols (12, 18, 22). For Northern blots, 15 mg of RNA was denatured with glyoxal/DMSO, electrophoresed on 1% agarose gels, transferred to nylon membranes and hybridized with ^32P-dCTP labeled cDNA probes.

mda-7-ARE-3'-UTR = test: Luciferase-mda-7-ARE-3'UTR reporter assay; type: cell-based, human; conditions: HO-1 cells
From the text: Posttranscriptional regulation of Luciferase mRNA as a consequence of mda-7-3′ UTR addition at its 3′-end. The Luciferase expression plasmid having SV40 polyadenylation signal sequence was replaced with the 3′-UTR region (approximately 900 bp) of mda-7. […] (FIG. 3A) Mda-7 3′-UTR mediated destabilization of luciferase mRNA was computed as fold induction of luciferase enzyme activity, which is seen only when stable luciferase mRNA, is synthesized. […] (FIG. 3B) Kinetic analysis of luciferase activity (as fold-induction) of the mda-7 promoter-luciferase-ARE-3′-UTR construct as a function of time of treatment with IFN-β+MEZ. Luciferase assays were performed as described by Gopalkrishnan et al. (1999) and briefly in the legend to FIGS. 1A-1B.
To examine the posttranscriptional regulation of mda-7 mRNA specifically during terminal differentiation of human melanoma cells, we constructed a Luciferease-mda-7-ARE-3′UTR plasmid under transcriptional control of either the FL-mda-7 promoter (FIG. 3) or the SV40 large T-antigen promoter. These plasmids were co-transfected into HO-1 cells and treated with differentiation inducers.

FL-mda-7 promoter = FL-mda-7 promoter luciferase reporter assay, transient transfection; type: cell-based, human; conditions: HO-1 and MeWo cells, 48 hr treatment, relative to uninduced; IFN-β 2000 units/ml, MEZ 10 ng/ml
Procedure: The effect of differentiation inducer drug treatment on full length mda-7 promoter activity. Fold induction of the FL-mda-7 promoter relative to the pGL3-Basic plasmid with or without differentiation inducer drug treatment in HO-1 (FIG. 1A) or MeWo (FIG. 1B) human melanoma cells. Luciferase assays were performed as previously described (Gopalkrishnan et al., 1999). In brief, the promoter-containing plasmids were transiently transfected into the different cell types using Superfect^R (Qiagen) according to the manufacturer's protocol. The cells were treated with differentiation inducers (IFN-β, 2000 units/ml; MEZ, 10 ng/ml; or IFN-β+MEZ, 2000 units/ml+10 ng/ml) for 48 h following transfection and assayed for luciferase activity using the Luc+Assat Kit (Promega). The SV40-p-Galactosidase plasmid was co-transfected with the luciferase constructs and used to normalize for variations in transfection efficiencies between experiments. […]
The presumptive promoter fragment was assayed for promoter activity using a heterologous gene reporter system (pGL3-Basic, luciferase assay system, Promega). […] The transfection efficiency was determined by cotransfection with RSV-β-galactosidase (Tropics β-Gal assay kit) and the relative luciferase activity was computed after correction for variations in transfection efficiencies.

mda-7 gene = test: Nuclear run-on assay of mda-7 transcription; type: cell-based, human; conditions: HO-1 cells, 24 h treatment, versus uninduced control
Procedure: (FIG. 2A) Nuclear run-on assays using nuclei isolated from Control or 24 h after treatment with IFN-β, MEZ or IFN-β+MEZ, the same concentrations as indicated in FIG. 1. GAPDH was used as an internal control. In vitro transcription assays were performed as previously described (Jiang et al., 1993). […] GAPDH was used as an internal loading control.
Transcription of the housekeeping gene, GAPDH served as an internal control.

mda-7 mRNA [2] = test: Northern blotting of mda-7 message; type: cell-based, human; conditions: HO-1 cells, 24 h treatment
From the text: FIGS. 5A-5B. Message and protein expression analyses of mda-7 during melanoma terminal differentiation. (FIG. 5A) Northern blotting analysis of mda-7 message expression. Total RNA was isolated from HO-1 cells that were uninduced (C) or treated with IFN-β (I), MEZ (M) or IFN-β+MEZ (I+M) and analyzed by Northern blotting. 28S RNA was used as a loading control. Mda-7 message was detected using a random primed [^32P]-labeled mda-7 cDNA probe (18). (FIG. 5B) Indirect immunofluorescence visualization of MDA-7 protein subcellular localization. Both uninduced HO-i cells (Control; A and S) and terminally differentiated (48 h IFN-β+MEZ treated; C and D) were immuno-labeled using anti-MDA-7 specific monoclonal antibody. Anti-mouse secondary antibodies conjugated with Rhodamine enabled visualization of MDA-7 protein localization (A and C) and the DNA specific dye, DAPI was used to stain nuclei (B and D). With the exception of a cell undergoing mitosis no other cells reveal MDA-7 staining in control cultures (A and B). Terminally differentiated cells in (C) and (D) show strong punctate MDA-7 staining within the nucleus (See enlargement below (C) and (D) of a single nucleus). The arrow points to the punctate bodies to which MDA-7 localizes in the nucleus and their coincidence with DAPI bright staining regions.
Nucleic acid analysed. […]

C/EBP-β/LAP = test: Western blotting of C/EBP-β/LAP protein in whole cell lysates; type: cell-based, human; conditions: HO-1 cells, 24 h treatment
Procedure: (§1) FIGS. 8A-8C. Protein expression pattern of the transcription factors cJun/AP-1 and C/EBP-β and their ability to transactivat the mda-7 promoter. [FIG. 8A] Whole cell lysates from HO-1 control cells (C) and those treated with IFN-β (I), MEZ (M), IFN-β+MEZ (I+M) or TPA were resolved on a 4-20% SDS-PAGE gel and transblotted onto nitrocellulose filters. Immobilized proteins were then analyzed by Western blotting using commercially available cJun/AP-1 and C/EBP-β specific antibodies. […] Equal protein loading was determined by Coomassie blue staining of a parallel gel. [FIG. 8B] […]
(§2) Electrophoresis and immunoblotting. Equal amounts of whole cell proteins were analyzed by sodium dodecylsulfate-polyacrylamide gel electrophoresis (SDS-PAGE, 4-20% gradient gel; Novex) and electrotransferred onto ECL grade nitrocellulose (Amersham) as described previously (24). […]
(§3) AP-1 and C/EBP families of transcription factors are responsible for mda-7 promoter activation during human melanoma differentiation. […] Western blot analyses of whole cell lysates (equal protein loading was verified by Coomassie blue staining of a parallel gel, data not shown) from uninduced HO1 cells and cultures treated for 24 h with IFN-β, MEZ, IFN-β+MEZ or TPA were analyzed using anti-cJun/AP-1, anti-C/EBP-α or anti-C/EBP-β antibodies. […]

HO-1 cells = conditions: cited from earlier work
cJun/AP-1 = test: Western blotting of cJun/AP-1 protein in whole cell lysates; type: cell-based, human; conditions: HO-1 cells, 24 h treatment, compared to uninduced controls
Procedure: as §1, §2, §3

mda-7 mRNA [3] = test: Effect of cycloheximide on mda-7 mRNA stability, Northern blotting; type: cell-based, human; conditions: MEZ treated HO-1 cells, cycloheximide 10 μg/ml for 3 h; lesser extent in control and IFN-β treated samples
Procedure: (§4) FIGS. 4A-4B. Effect of actinomycin D and cycloheximide on th half-life and stability of the mda-7 message. […] Northern blotting analyses were performed on total RNA isolated from control (C)HO-1 or cells treated with IFN-β (I), MEZ (M) or IFN-β+MEZ (I+M), at the same concentrations as in FIG. 1. Twenty-four h after exposure to the inducing agent(s), acitnomycin D (Act.D, 5 μg/ml) was added (+Act.D) for 30 minutes (30′) or one h (1′). Mda-7 expression was detected using a radiolabeled mda-7 cDNA probe as previously described (Jiang et al., 1995a). rRNA visualized by ethidium bromide was used as a loading control. (FIG. 4B) Effect of cycloheximide treatment on mda-7 mRNA stability relative to p21/mda-6 Untreated control (C)HO-1 cells or cells treated for 24 h with IFN-β (I), MEZ (M) or IFN-β+MEZ at the same concentrations as in FIGS. 1A-1B. After 24 h induction, cells were treated with or without cycloheximide (10 μg/ml) for 3 h and total RNA was isolated and analyzed by Northern blotting. Mda-7 expression was detected using a radiolabeled mda-7 cDNA probe (Jiang et al., 1995a). The blot was allowed to decay for 3 months, and then reprobed using a radiolabeled probe against a p21/mda-6 cDNA (Jiang et al., 1995b). rRNA visualized by ethidium bromide was used as a loading control. […]

p21/Waf1/Cip1/mda-6 = test: Effect of cycloheximide on p21/mda-6 message, Northern blotting; type: cell-based, human; conditions: HO-1 cells, cycloheximide 10 μg/ml for 3 h
Procedure: as §4

mda-7 promoter = mda-7 promoter activity on IL-6 treatment; type: cell-based; conditions: cells treated with IL-6, unpublished data
Procedure: It appears that C/EBP-B/LAP binding sites at a distance from the TATA element are responsible for mda-7 expression in terminally differentiated human melanoma cells. Another line of evidence supporting the involvement of the C/EBP gene family in melanoma terminal differentiation is apparent from increased levels of C/EBP-B/LAP protein in HO-1 cells as early as 24 h after treatment with IFN-β+MEZ when compared to cells treated with IFN-β, MEZ or TPA. The transcription factor C/EBP is a heat-stable, sequence-specific DNA-binding protein first purified from rat liver nuclei (39). C/EBP regulates gene expression in a variety of tissues including liver, adipose, lung and intestine (40). This transcription factor appears to function exclusively in differentiated and growth-arrested cells (40). […] It is the ratio of LIP/LAP that is important in C/EBP-mediated gene expression. In the case of terminally differentiated HO-1 melanoma cells, we were unable to detect any LIP protein. The present studies provide evidence that the C/EBP gene family members, C/EBP-B/LAP in particular, play a major role during melanoma terminal differentiation. C/EBP-a and -B can both directly induce the mda-7 promoter as shown by ectopic expression analyses. […]

In the case of `C=C(C)[C@@]12O[C@@]3(c4ccccc4)O[C@@H]1[C@@H]1[C@@H]4O[C@]4(CO)[C@@H](O)[C@]4(O)C(=O)C(C)=C[C@H]4[C@@]1(O3)[C@H](C)[C@H]2OC(=O)/C=C/C=C/c1ccccc1` [MEZ, mezerein], the “mda-7 mRNA by RT-PCR” value (mda-7 mRNA [1]) is reported as “lower levels”, the “luciferase enzyme activity of Luciferase-mda-7-ARE-3'UTR construct” value (mda-7-ARE-3'-UTR) is reported as “minimal” and the “activity of the FL-mda-7 promoter (luciferase)” value (FL-mda-7 promoter) is reported as “only small changes”. For the same molecule, the “rate of mda-7 transcription” value (mda-7 gene) was “the same”, the “mda-7 message by Northern blotting” value (mda-7 mRNA [2]) was “Quantitatively less” and the “level of C/EBP-β/LAP protein” value (C/EBP-β/LAP) was “approximately 3 fold”. For the same molecule, the “growth suppression and differentiation” value (HO-1 cells) was “reversible”.
With `CCCCCCCCCCCCCC(=O)O[C@@H]1[C@@H](C)[C@@]2(O)[C@@H](C=C(CO)C[C@]3(O)C(=O)C(C)=C[C@@H]23)[C@@H]2C(C)(C)[C@]12OC(C)=O` [TPA] the “level of cJun/AP-1 protein” value (cJun/AP-1) was “only marginally increased”.
In the case of `C[C@@H]1C[C@@H]([C@H](O)CC2CC(=O)NC(=O)C2)C(=O)[C@@H](C)C1` [cycloheximide], the “accumulation of mda-7 mRNA” value (mda-7 mRNA [3]) is reported as “visibly increased” and the p21/mda-6 message accumulation (p21/Waf1/Cip1/mda-6) is reported as “does not show message accumulation”.
With IL-6: potent inducer of NF-IL6 the mda-7 promoter activity (mda-7 promoter) was “induced”.
